From PubChem BioAssay (NCI)
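These data come from cells grown in 96-well plates and exposed to compound for 48 hours at five concentrations. GI50 is the concentration that inhibits growth by half. TGI denotes the concentration required for complete inhibition of growth.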

Assays:
Experiment in all cases: NCI-60 cell line screen, 48 h
[1] = tested on: IGROV1 ovarian
[2] = tested on: SF-539 CNS
[3] = tested on: MOLT-4 leukemia
[4] = tested on: 786-0 renal
[5] = tested on: NCI-H226 lung
[6] = tested on: LXFL 529 NSCLC
[7] = tested on: SNB-78 CNS
[8] = tested on: RPMI-8226 leukemia
[9] = tested on: MALME-3M melanoma
[10] = tested on: NCI-H522 lung
[11] = tested on: UO-31 renal
[12] = tested on: CAKI-1 renal
[13] = tested on: SNB-75 CNS
[14] = tested on: UACC-62 melanoma
[15] = tested on: SN12C renal
[16] = tested on: M14 melanoma
[17] = tested on: SR leukemia
[18] = tested on: SK-MEL-28 melanoma
[19] = tested on: NCI-H23 lung
[20] = tested on: HOP-92 NSCLC
[21] = tested on: NCI-H460 lung
[22] = tested on: COLO 205 colon
[23] = tested on: HCT-116 colon
[24] = tested on: XF 498 CNS
[25] = tested on: OVCAR-4 ovarian
[26] = tested on: HCC-2998 colon
[27] = tested on: DMS 114 small cell lung
[28] = tested on: M19-MEL melanoma
[29] = tested on: SK-MEL-2 melanoma
[30] = tested on: DMS 273 small cell lung
[31] = tested on: K-562 leukemia
[32] = tested on: HL-60(TB) leukemia
[33] = tested on: A498 renal
[34] = tested on: DLD-1 colon
[35] = tested on: SF-268 CNS
[36] = tested on: SK-OV-3 ovarian
[37] = tested on: CCRF-CEM leukemia
[38] = tested on: HOP-62 NSCLC
[39] = tested on: LOX IMVI melanoma
[40] = tested on: SNB-19 CNS
[41] = tested on: SK-MEL-5 melanoma
[42] = tested on: OVCAR-3 ovarian
[43] = tested on: ACHN renal
[44] = tested on: U251 CNS
[45] = tested on: SW-620 colon
[46] = tested on: HCT-15 colon
[47] = tested on: KM12 colon
[48] = tested on: HT29 colon
[49] = tested on: OVCAR-5 ovarian
[50] = tested on: OVCAR-8 ovarian
[51] = tested on: EKVX NSCLC
[52] = tested on: RXF 393 renal
[53] = tested on: HOP-18 NSCLC
[54] = tested on: A549 NSCLC
[55] = tested on: KM20L2 colon
[56] = tested on: UACC-257 melanoma

With `Cc1[nH]c(=O)nc(N/N=C/c2ccc(O)cc2)c1C(=O)Nc1ccc(O)cc1` the TGI [1] was greater than 100 µM, the TGI [2] was greater than 100 µM and the TGI [3] was greater than 100 µM. The TGI [4] was greater than 100 µM, the TGI [5] was greater than 100 µM and the TGI [6] was greater than 100 µM. For the same compound, the TGI [7] was greater than 100 µM, the TGI [8] was greater than 100 µM and the TGI [9] was greater than 100 µM. The TGI [10] was greater than 100 µM, the TGI [11] was greater than 100 µM and the TGI [12] was greater than 100 µM. For the same compound, the TGI [13] was greater than 100 µM, the TGI [14] was greater than 100 µM and the TGI [15] was greater than 100 µM. It also gave a TGI [16] greater than 100 µM, a TGI [17] greater than 100 µM and a TGI [18] greater than 100 µM. The TGI [19] was greater than 100 µM, the TGI [20] was greater than 100 µM and the TGI [21] was greater than 100 µM. The TGI [22] was greater than 100 µM, the TGI [23] was greater than 100 µM and the TGI [24] was greater than 100 µM. It also gave a TGI [25] greater than 100 µM, a TGI [26] greater than 100 µM and a TGI [27] greater than 100 µM. For the same compound, the TGI [28] was greater than 100 µM, the TGI [29] was greater than 100 µM and the TGI [30] was greater than 100 µM. The TGI [31] was greater than 100 µM, the TGI [32] was greater than 100 µM and the TGI [33] was greater than 100 µM. The TGI [34] was greater than 100 µM, the TGI [35] was greater than 100 µM and the TGI [36] was greater than 100 µM. The TGI [37] was greater than 100 µM and the TGI [38] was greater than 100 µM.

For `O=C1C(=c2ccc(=C3C(=O)c4ccc([N+](=O)[O-])cc4[N+]3=O)cc2)N([O-])c2cc([N+](=O)[O-])ccc21`, the GI50 [1] was greater than 100 µM, the TGI [1] was greater than 100 µM and the GI50 [2] was greater than 100 µM. It also gave a TGI [2] greater than 100 µM, a GI50 [3] greater than 100 µM and a TGI [3] greater than 100 µM. It also gave a GI50 [39] greater than 100 µM, a TGI [39] greater than 100 µM and a GI50 [40] greater than 100 µM. For the same compound, the TGI [40] was greater than 100 µM, the TGI [4] was greater than 100 µM and the GI50 [41] was greater than 100 µM. For the same compound, the TGI [41] was greater than 100 µM, the GI50 [5] was greater than 100 µM and the TGI [5] was greater than 100 µM. The GI50 [42] was greater than 100 µM, the TGI [42] was greater than 100 µM and the GI50 [6] was greater than 100 µM. The TGI [6] was greater than 100 µM, the TGI [7] was greater than 100 µM and the GI50 [43] was greater than 100 µM. It also gave a TGI [43] greater than 100 µM, a GI50 [44] greater than 100 µM and a TGI [44] greater than 100 µM. It also gave a GI50 [45] greater than 100 µM, a TGI [45] greater than 100 µM and a GI50 [9] greater than 100 µM. For the same compound, the TGI [9] was greater than 100 µM, the GI50 [10] was greater than 100 µM and the TGI [10] was greater than 100 µM. The GI50 [11] was greater than 100 µM, the TGI [11] was greater than 100 µM and the GI50 [12] was greater than 100 µM. The TGI [12] was greater than 100 µM, the GI50 [46] was greater than 100 µM and the TGI [46] was greater than 100 µM. The TGI [13] was 69.8 µM, the GI50 [47] was greater than 100 µM and the TGI [47] was greater than 100 µM. For the same compound, the GI50 [15] was greater than 100 µM, the TGI [15] was greater than 100 µM and the GI50 [16] was greater than 100 µM. For the same compound, the TGI [16] was greater than 100 µM, the GI50 [48] was greater than 100 µM and the TGI [48] was greater than 100 µM. It also gave a GI50 [18] greater than 100 µM, a TGI [18] greater than 100 µM and a GI50 [19] greater than 100 µM. The TGI [19] was greater than 100 µM, the GI50 [49] was greater than 100 µM and the TGI [49] was greater than 100 µM. It also gave a GI50 [20] greater than 100 µM, a TGI [20] greater than 100 µM and a GI50 [50] greater than 100 µM. For the same compound, the TGI [50] was greater than 100 µM, the GI50 [21] was greater than 100 µM and the TGI [21] was greater than 100 µM. It also gave a GI50 [22] greater than 100 µM, a TGI [22] greater than 100 µM and a GI50 [23] greater than 100 µM. It also gave a TGI [23] greater than 100 µM, a GI50 [25] greater than 100 µM and a TGI [25] greater than 100 µM. It also gave a GI50 [51] greater than 100 µM, a TGI [51] greater than 100 µM and a GI50 [26] greater than 100 µM. For the same compound, the TGI [26] was greater than 100 µM, the GI50 [52] was greater than 100 µM and the TGI [52] was greater than 100 µM. For the same compound, the GI50 [28] was greater than 100 µM, the TGI [28] was greater than 100 µM and the GI50 [29] was greater than 100 µM. It also gave a TGI [29] greater than 100 µM, a GI50 [30] greater than 100 µM and a TGI [30] greater than 100 µM. The GI50 [31] was greater than 100 µM, the TGI [31] was greater than 100 µM and the TGI [53] was greater than 100 µM. For the same compound, the GI50 [32] was greater than 100 µM, the TGI [32] was greater than 100 µM and the GI50 [54] was greater than 100 µM. It also gave a TGI [54] greater than 100 µM, a GI50 [55] greater than 100 µM and a TGI [55] greater than 100 µM. The GI50 [33] was greater than 100 µM, the TGI [33] was greater than 100 µM and the GI50 [34] was greater than 100 µM. For the same compound, the TGI [34] was greater than 100 µM, the GI50 [36] was greater than 100 µM and the TGI [36] was greater than 100 µM. The GI50 [37] was greater than 100 µM, the TGI [37] was greater than 100 µM and the TGI [38] was greater than 100 µM. For the same compound, the GI50 [56] was greater than 100 µM and the TGI [56] was greater than 100 µM.
